The values that follow are results of earlier work, collected in patent US20120316134A1, “ANAESTHETIC COMPOSITION” (JUROX PTY. LTD., priority 2000, published 2012).

The conditions of this data set: in vivo.

With `CC(=O)OCC(=O)[C@H]1CC[C@H]2[C@@H]3CC[C@H]4C[C@H](O)CC[C@]4(C)[C@H]3C(=O)C[C@]12C` [alfadolone acetate, 21-acetoxy-3 α-hydroxy-5α-pregnane-11,20-dione], the “Anaesthetic potency relative to alfaxalone” value is “half as potent”.
